These results are taken from PMC6887723, “Design and Synthesis of 4-(Heterocyclic Substituted Amino)-1H-Pyrazole-3-Carboxamide Derivatives and Their Potent Activity against Acute Myeloid Leukemia (AML)” (International Journal of Molecular Sciences, 2019).

One data set addresses T1, CDK2 (Homo sapiens, UniProt P24941).
T1 construct: purchased Reaction Biology Corp
The data set can be described thus: CDK2 kinase activity assay (Hot-Spot). Type of data set: biochemical. Conditions: 10 μM ATP; mean ± SD, three independent experiments. How it is done:
(§1) Activities of kinases were determined using Hot-SpotSM kinase assay which was performed by Reaction Biology Corp. (Malvern PA, USA) as described previously.

The next data set deals with T2, FLT3 (Homo sapiens, UniProt P36888).
T2 construct: purchased Reaction Biology Corp
T2 sequence (P36888 27-993): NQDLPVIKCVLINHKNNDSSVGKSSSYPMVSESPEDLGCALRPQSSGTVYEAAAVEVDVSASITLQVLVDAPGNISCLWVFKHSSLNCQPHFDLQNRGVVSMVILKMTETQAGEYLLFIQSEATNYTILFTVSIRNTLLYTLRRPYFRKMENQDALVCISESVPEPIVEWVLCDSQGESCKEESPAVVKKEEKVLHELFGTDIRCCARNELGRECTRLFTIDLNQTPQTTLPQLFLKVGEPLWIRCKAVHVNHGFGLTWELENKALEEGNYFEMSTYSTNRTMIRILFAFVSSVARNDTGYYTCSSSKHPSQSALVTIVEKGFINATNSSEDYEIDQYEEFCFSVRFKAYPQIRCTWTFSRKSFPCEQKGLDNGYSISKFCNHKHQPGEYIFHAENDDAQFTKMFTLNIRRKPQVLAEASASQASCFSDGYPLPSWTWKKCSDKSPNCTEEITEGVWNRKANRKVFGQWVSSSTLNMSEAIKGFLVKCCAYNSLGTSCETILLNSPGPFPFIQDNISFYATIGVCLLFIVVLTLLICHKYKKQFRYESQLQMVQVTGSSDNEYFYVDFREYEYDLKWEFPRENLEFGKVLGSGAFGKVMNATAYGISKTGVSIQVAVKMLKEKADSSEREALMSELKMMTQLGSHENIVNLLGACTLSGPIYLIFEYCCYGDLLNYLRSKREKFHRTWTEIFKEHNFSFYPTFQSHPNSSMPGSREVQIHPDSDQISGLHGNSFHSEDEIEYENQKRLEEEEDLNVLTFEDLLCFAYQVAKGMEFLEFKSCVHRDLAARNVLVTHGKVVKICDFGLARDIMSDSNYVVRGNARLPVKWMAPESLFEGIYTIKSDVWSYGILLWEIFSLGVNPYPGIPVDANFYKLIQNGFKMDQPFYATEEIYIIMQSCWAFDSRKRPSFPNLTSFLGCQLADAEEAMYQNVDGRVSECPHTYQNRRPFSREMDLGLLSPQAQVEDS
The data set can be described thus: FLT3 kinase activity assay (Hot-Spot). In kind it is biochemical. The following applies: 10 μM ATP; mean ± SD, three independent experiments. The procedure: as §1

The target in the next data set is T3, CDK4 (Homo sapiens, UniProt P11802).
T3 construct: purchased Reaction Biology Corp
T3 sequence (P11802 whole entry): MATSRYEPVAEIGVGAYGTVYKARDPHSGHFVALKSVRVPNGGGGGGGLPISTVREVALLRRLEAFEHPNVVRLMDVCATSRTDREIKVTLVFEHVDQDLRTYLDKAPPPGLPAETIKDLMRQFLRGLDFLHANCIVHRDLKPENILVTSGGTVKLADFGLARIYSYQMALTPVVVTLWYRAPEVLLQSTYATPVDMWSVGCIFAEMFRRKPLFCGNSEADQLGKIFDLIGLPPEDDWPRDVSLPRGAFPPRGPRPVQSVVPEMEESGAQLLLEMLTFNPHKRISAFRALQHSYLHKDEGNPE
T3 sequence (P24385 whole entry partner): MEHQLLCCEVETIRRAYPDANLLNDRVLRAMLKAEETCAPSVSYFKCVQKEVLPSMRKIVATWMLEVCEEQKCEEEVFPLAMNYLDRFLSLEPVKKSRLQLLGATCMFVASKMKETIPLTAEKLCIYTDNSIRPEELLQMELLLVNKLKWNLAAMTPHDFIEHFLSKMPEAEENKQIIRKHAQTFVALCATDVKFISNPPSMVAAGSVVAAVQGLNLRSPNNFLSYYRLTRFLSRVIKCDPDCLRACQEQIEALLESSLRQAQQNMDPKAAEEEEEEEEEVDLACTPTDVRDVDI
Briefly: CDK4 kinase activity assay (Hot-Spot). Type of data set: biochemical. The following applies: 10 μM ATP; mean ± SD, three independent experiments. How it is done:
as §1

In the next data set the test system is MV4-11. The data set can be described thus: Cell growth inhibition assay (CellTiter-Glo). Type of data set: cell-based. Conditions: Homo sapiens, 72 h, highest test concentration 1 μM, mean ± SD, three independent experiments. How it is done: The human AML cell line MV4-11 was purchased from the American Type Culture Collection (ATCC) (Manassas, VA, USA). MV4-11 was cultured in IMDM media (Corning, Crown Bioscience Inc., Taicang, China) with 10% FBS and supplemented with 2% L-glutamine and 1% pen/strep. The MV4-11 cell line was maintained in culture media at 37 °C with 5% CO2. The effects of target compounds on MV4-11 proliferation was performed by Crown Bioscience Inc. Cells were grown in 96-well culture plates (10,000/well). The compounds of various concentrations were added into the plates. Cell proliferation was determined after treatment with compounds for 72 h. Cell viability was measured using the CellTiter-Glo assay (Promega, Crown Bioscience Inc., Taicang, China) according to the manufacturer’s instructions, and luminescence was measured in a multilabel reader (Envision2014, PerkinElmer, Crown Bioscience Inc., Taicang, China). Data were normalized to the control group (DMSO) and represented by the mean of three independent measurements with standard error of <20%. IC50 values were calculated using Prism 5.0 (GraphPad Software, San Diego, CA, USA).
For orientation: ATP-based viability assays read luminescence as a measure of living cells.

The subject of a further data set is BaF3 (FLT3 (ITD-F691L)). The data set can be described thus: Antiproliferative activity in BaF3 cells transformed with FLT3-ITD-F691L. In kind it is cell-based. Conditions: Mus musculus, Table S2.

Each structure is given as a SMILES string. Values joined by “and” are separate entries in the source; they are usually repeats but may differ in a detail not shown here. Identical values can stand only once.

On to `O=C(Nc1ccccc1)c1n[nH]cc1Nc1ncnc2[nH]ccc12` [Compound 3a], for which the IC50 amounted to 0.2 ± 0.01 nM at CDK2, 5.1 ± 0.46 nM against FLT3 and 34.1 ± 0.94 nM against CDK4.
The like results for `O=C(Nc1ccncc1)c1n[nH]cc1Nc1ncnc2[nH]ccc12` [Compound 3b] were, in that order, 4.31 ± 0.91 nM, 5.83 ± 0.74 nM and 54.2 ± 1.26 nM.
`CC(C)(C)OC(=O)N1CCC(NC(=O)c2n[nH]cc2Nc2ncnc3[nH]ccc23)CC1` [Compound 3c]: the melting point fell in the range of 268 to 269 °C. In addition, the IC50 on CDK2 worked out at 32.8 ± 1.34 nM. This compound also registered a concentration for half-maximal inhibition (IC50) at FLT3 of 88.8 ± 1.06 nM. Moreover, the IC50 against CDK4 was determined as 87.1 ± 1.26 nM.
Consider `O=C(NC1CCNCC1)c1n[nH]cc1Nc1ncnc2[nH]ccc12` [Compound 3d], for which the values for the IC50 against CDK2, against FLT3 and on CDK4 were 63.2 ± 0.91 nM, 74.3 ± 1.21 nM and 77.4 ± 1.1 nM, respectively.
Compound `O=C(Nc1ccc(C(=O)N2CCOCC2)cc1)c1n[nH]cc1Nc1ncnc2sccc12` [Compound 8a] returned a melting point of 243 to 244 °C. At CDK2, this compound had an IC50 of 10.4 ± 0.41 nM. For the same compound, the IC50 against FLT3 came out at 17.8 ± 0.89 nM. This compound also registered a half-maximal inhibitory concentration (IC50) against CDK4 of 33 ± 0.94 nM.
Regarding `CN1CCN(C(=O)c2ccc(NC(=O)c3n[nH]cc3Nc3ncnc4sccc34)cc2)CC1` [Compound 8b], the melting point lay in the range of 280 to 281 °C. The IC50 on CDK2 amounted to 8.42 ± 0.52 nM. In addition, it took 35.2 ± 0.83 nM to reach half-maximal inhibition with MV4-11 (IC50). In addition, the half-inhibitory concentration (IC50) against FLT3 worked out at 19.18 ± 0.18 nM. Also, the IC50 at CDK4 came out at 30.1 ± 0.99 nM.
The like results for `CN1CCCN(c2ccc(NC(=O)c3n[nH]cc3Nc3ncnc4sccc34)cc2)CC1` [Compound 8c] were, in that order, 223 to 224 °C, 3.51 ± 0.19 nM, 4.28 ± 0.35 nM, 0.176 ± 0.09 nM and 2.41 ± 0.21 nM.
The like results for `CN1CCCN(c2ccc(NC(=O)c3n[nH]cc3Nc3ncnc4[nH]ccc34)cc2)CC1` [Compound 8d] were, in that order, 263 to 264 °C, 2.32 ± 0.014 nM, 9.5 ± 0.01 nM, 0.262 ± 0.01 nM and 5.32 ± 0.31 nM.
In turn, `CN1CCCN(c2cccc(NC(=O)c3n[nH]cc3Nc3ncnc4[nH]ccc34)c2)CC1` [Compound 8e] had a melting point of 215 to 216 °C. The same compound returned an IC50 at CDK2 of 5.49 ± 0.42 nM. Moreover, in the data set on MV4-11, the IC50 was 38.3 ± 1.21 nM. Further, the IC50 against FLT3 is 2.71 ± 0.31 nM. In addition, inhibition against CDK4 was half-maximal at 51 ± 0.88 nM (IC50).
Regarding `CN1CCCN(c2cccc(NC(=O)c3n[nH]cc3Nc3ncnc4sccc34)c2)CC1` [Compound 8f], the melting point was over 300 °C. 31.7 ± 0.55 nM corresponded to half-maximal inhibition on CDK2 (IC50). Half-maximal inhibition in the data set with MV4-11 (IC50) required 54.1 ± 1.73 nM. The IC50 on FLT3 was determined as 8.07 ± 0.21 nM. Also, the IC50 at CDK4 amounted to 67.3 ± 1.09 nM.
For `O=C(Nc1ccc(N2CCOCC2)cc1)c1n[nH]cc1Nc1ncnc2[nH]ccc12` [Compound 8g], in that order: 303 to 304 °C, 3.74 ± 0.16 nM, 16 ± 0.43 nM, 1.945 ± 0.013 nM and 10.6 ± 0.24 nM.
The like results for `O=C(Nc1ccc(N2CCNCC2)cc1)c1n[nH]cc1Nc1ncnc2[nH]ccc12` [Compound 8h] were, in that order, 304 to 305 °C, 0.282 ± 0.013 nM, 7.3 ± 0.33 nM, 0.038 ± 0.001 nM and 1.19 ± 0.09 nM.
As for `O=C(Nc1ccc(N2CC3CC2CN3)cc1)c1n[nH]cc1Nc1ncnc2sccc12` (centres unmarked) [Compound 8i], the half-inhibitory concentration (IC50) amounted to 24.5 ± 0.57 nM at CDK2, 27.2 ± 0.43 nM in the data set with MV4-11, 3.24 ± 0.14 nM on FLT3 and 9.17 ± 0.33 nM against CDK4.
`O=C(Nc1ccc(N2CC3CC2CN3)cc1)c1n[nH]cc1Nc1ncnc2[nH]ccc12` (centres unmarked) [Compound 8j, N-(4-(2,5-Diazabicyclo[2.2.1]heptan-2-yl)phenyl)-4-((7 H-pyrrolo[2,3-d]pyrimidin-4-yl)amino)-1H-pyrazole-3-carboxamide] gave a melting point of 248 to 249 °C. The compound further came in with an IC50 against CDK2 of 9.64 ± 0.46 nM. In the data set on MV4-11, this compound displayed an IC50 of 21.4 ± 0.56 nM. For the same compound, the 50% inhibitory concentration (IC50) against FLT3 amounted to 2.81 ± 0.11 nM. On CDK4, this compound gave an IC50 of 17.8 ± 0.82 nM.
The like results for `O=C(Nc1ccc(N2CCNCC2)cn1)c1n[nH]cc1Nc1ncnc2sccc12` [Compound 8k, N-(5-(Piperazin-1-yl)pyridin-2-yl)-4-(thieno[2,3-d]pyrimidin-4-ylamino)-1H-pyrazole-3-carboxamide] were, in that order, over 300 °C, 315.2 ± 2.3 nM, 51.1 ± 1.34 nM, 6.03 ± 0.16 nM and 22.3 ± 0.92 nM.
For `O=C(Nc1ccc(N2CCNCC2)cn1)c1n[nH]cc1Nc1ncnc2[nH]ccc12` [Compound 8l, 4-((7H-Pyrrolo[2,3-d]pyrimidin-4-yl)amino)-N-(5-(piperazin-1-yl)pyridin-2-yl)-1H-pyrazole-3-carboxamide], in that order: 288 to 290 °C, 157 ± 3.22 nM, 134 ± 1.64 nM, 13.8 ± 0.37 nM and 23.1 ± 0.55 nM.
`O=C(Nc1ccc(N2CCNCC2)cn1)c1n[nH]cc1Nc1ncnc2sc3c(c12)CCC3` [Compound 8n]: the IC50 on CDK2 was 98.7 ± 1.33 nM; with MV4-11, 19.9 ± 0.74 nM; on FLT3, 1.88 ± 0.09 nM; against CDK4, 4.85 ± 0.2 nM.
The like results for `O=C(Nc1ccc(N2CCNCC2)cn1)c1n[nH]cc1Nc1ncnc2sc3c(c12)CCCCC3` [Compound 8o] were, in that order, 109.2 ± 1.01 nM, 45.4 ± 1.07 nM, 8.28 ± 0.12 nM and 1.81 ± 0.023 nM.
Consider `O=C(Nc1ccc(N2CCNCC2)cn1)c1n[nH]cc1Nc1ncnc2sc3c(c12)CCCC3` [Compound 8p], for which the melting point lay in the range of 266 to 267 °C. In addition, at CDK2, it took 86.4 ± 1.36 nM to reach half-maximal inhibition (IC50). The compound further returned a half-maximal inhibitory concentration (IC50) against FLT3 of 7.45 ± 0.19 nM. The compound further gave an IC50 on CDK4 of 3.81 ± 0.26 nM.
Turning to `O=C(Nc1ccc(N2CCNCC2)cn1)c1n[nH]cc1Nc1ncnc2c1CCC2` [Compound 8q], the melting point was over 290 °C. Further, the IC50 at CDK2 was 509 ± 10.3 nM. In the data set with MV4-11, 458 ± 9.2 nM corresponded to half-maximal inhibition (IC50). Besides, the IC50 against FLT3 amounted to 20.2 ± 0.35 nM. This compound yielded a half-inhibitory concentration (IC50) at CDK4 of 123.4 ± 1.09 nM.
Regarding `O=C(Nc1ccc(N2CCOCC2)cc1)c1n[nH]cc1Nc1ncnc2sc3c(c12)CCCC3` [Compound 8r], the melting point fell in the range of 267 to 268 °C. Moreover, half-maximal inhibition on CDK2 (IC50) required 9.29 ± 0.64 nM. The same compound had an IC50 in the data set on MV4-11 of 3.28 ± 0.19 nM. The IC50 against FLT3 is 3.8 ± 0.1 nM. Moreover, half-maximal inhibition on CDK4 (IC50) required 24.9 ± 0.29 nM.
In the case of `O=C(Nc1ccc(N2CC3CC2CN3)cc1)c1n[nH]cc1Nc1ncnc2sc3c(c12)CCC3` (centres unmarked) [Compound 8s], the IC50 at CDK2 is 5.43 ± 0.41 nM; with MV4-11 it was 9.13 ± 0.11 nM; against FLT3, 0.82 ± 0.003 nM; against CDK4, 4.36 ± 0.19 nM.
As to `CN1CCN(Cc2ccc(NC(=O)c3n[nH]cc3Nc3ncnc4[nH]ccc34)cc2)CC1` [FN-1501, 4-((7H-Pyrrolo[2,3-D]Pyrimidin-4-Yl)Amino)-N-(4-((4-Methylpiperazin-1-Yl)Methyl)Phenyl)-1H-Pyrazole-3-Carboxamide, reference compound], the IC50 at CDK2 was 1.02 nM and 2.33 nM; with MV4-11, 9 ± 0.27 nM; at CDK4 it was 0.39 nM and 1.02 nM; with BaF3 (FLT3 (ITD-F691L)), 55.9 nM.

The IC50 is the concentration at which inhibition is half-maximal. A low value points to greater potency. The melting point is the temperature, or range, at which the solid turns liquid.
